Laboratory results taken from ChEMBL document CHEMBL3596184, “Prostate tumor specific peptide-peptoid hybrid prodrugs” (2015).
Numbered stars: 1 amine (or outer) side, 2 acyl side, 3 side chain; on linkers, the order of the positions; unused ones are H or OH. Square brackets hold non-standard residues; d marks the D form. Peptide text beside a SMILES is read from it. γGlu = O=C(O)[C@H](CCC(=O)[*:2])N[*:1]; Hyp = O=C(O)[C@@H]1C[C@@H](O)CN1; Nspe = C[C@H](NCC(=O)O)c1ccccc1; Chg = N[C@H](C(=O)O)C1CCCCC1; Nlys = NCCCCNCC(=O)O

Key:
Assay type in all cases: functional
LNCaP [1] = test: Cytotoxicity against human LNCAP cells assessed as induction of cell death after 48 hrs by MTS assay; conditions: read-out: LC50 (the source's name)
PC-3 = test: Cytotoxicity against human PC3 cells assessed as induction of cell death after 48 hrs by MTS assay; conditions: PC-3, 48 h, read-out: LC50 (the source's name)
LNCaP [2] = test: Selectivity ratio of LC50 for human PC3 cells to LC50 for human LNCaP cells

## C[C@@H](c1ccccc1)N(CC(N)=O)C(=O)CN(C(=O)CN(CCCCN)C(=O)CN(C(=O)CN(C(=O)CN(CCCCN)C(=O)CN(C(=O)CN(C(=O)CN(CCCCN)C(=O)CN(C(=O)CN(C(=O)CN(CCCCN)C(=O)[C@@H]1CCCN1C(=O)[C@H](CO)NC(=O)[C@H](CO)NC(=O)[C@H](CCC(N)=O)NC(=O)[C@@H](NC(=O)[C@H](CO)NC(=O)[C@H](CO)NC(=O)[C@@H]1C[C@@H](O)CN1)C1CCCCC1)[C@@H](C)c1ccccc1)[C@@H](C)c1ccccc1)[C@@H](C)c1ccccc1)[C@@H](C)c1ccccc1)[C@@H](C)c1ccccc1)[C@@H](C)c1ccccc1)[C@@H](C)c1ccccc1 (H-[Hyp]SS[Chg]QSSP[Nlys][Nspe][Nspe][Nlys][Nspe][Nspe][Nlys][Nspe][Nspe][Nlys][Nspe][Nspe]-NH2)
LNCaP [1]
  CC50: 17 µM
PC-3
  CC50: 35 µM
LNCaP [2]
  RatioLC50: 2.1

## C[C@@H](c1ccccc1)N(CC(N)=O)C(=O)CN(C(=O)CN(CCCCN)C(=O)CN(C(=O)CN(C(=O)CN(CCCCN)C(=O)CN(C(=O)CN(C(=O)CN(CCCCN)C(=O)CN(C(=O)CN(C(=O)CN(CCCCN)C(=O)CC[C@H](NC(=O)CC[C@H](N)C(=O)O)C(=O)O)[C@@H](C)c1ccccc1)[C@@H](C)c1ccccc1)[C@@H](C)c1ccccc1)[C@@H](C)c1ccccc1)[C@@H](C)c1ccccc1)[C@@H](C)c1ccccc1)[C@@H](C)c1ccccc1 ({γGlu-γGlu}-[Nlys][Nspe][Nspe][Nlys][Nspe][Nspe][Nlys][Nspe][Nspe][Nlys][Nspe][Nspe]-NH2)
LNCaP [1]
  CC50: 10 µM
PC-3
  CC50: 18 µM
LNCaP [2]
  RatioLC50: 1.8

## CC(=O)N[C@@H](CCC(=O)N[C@@H](CCC(=O)N[C@@H](CCC(=O)N[C@@H](CCC(=O)N[C@@H](Cc1cnc[nH]1)C(=O)N[C@@H](CO)C(=O)N[C@@H](CO)C(=O)N[C@@H](CCCCN)C(=O)N[C@@H](CC(C)C)C(=O)N[C@@H](CCC(N)=O)C(=O)N(CCCCN)CC(=O)N(CC(=O)N(CC(=O)N(CCCCN)CC(=O)N(CC(=O)N(CC(=O)N(CCCCN)CC(=O)N(CC(=O)N(CC(=O)N(CCCCN)CC(=O)N(CC(=O)N(CC(N)=O)[C@@H](C)c1ccccc1)[C@@H](C)c1ccccc1)[C@@H](C)c1ccccc1)[C@@H](C)c1ccccc1)[C@@H](C)c1ccccc1)[C@@H](C)c1ccccc1)[C@@H](C)c1ccccc1)[C@@H](C)c1ccccc1)C(=O)O)C(=O)O)C(=O)O)C(=O)O (Ac-[γGlu][γGlu][γGlu][γGlu]HSSKLQ[Nlys][Nspe][Nspe][Nlys][Nspe][Nspe][Nlys][Nspe][Nspe][Nlys][Nspe][Nspe]-NH2)
LNCaP [1]
  CC50: 35 µM
PC-3
  CC50: 47 µM
LNCaP [2]
  RatioLC50: 1.3

## CC(=O)N[C@@H](CCC(=O)N[C@@H](CCC(=O)N[C@@H](CCC(=O)N[C@@H](Cc1cnc[nH]1)C(=O)N[C@@H](CO)C(=O)N[C@@H](CO)C(=O)N[C@@H](CCCCN)C(=O)N[C@@H](CC(C)C)C(=O)N[C@@H](CCC(N)=O)C(=O)N(CCCCN)CC(=O)N(CC(=O)N(CC(=O)N(CCCCN)CC(=O)N(CC(=O)N(CC(=O)N(CCCCN)CC(=O)N(CC(=O)N(CC(=O)N(CCCCN)CC(=O)N(CC(=O)N(CC(N)=O)[C@@H](C)c1ccccc1)[C@@H](C)c1ccccc1)[C@@H](C)c1ccccc1)[C@@H](C)c1ccccc1)[C@@H](C)c1ccccc1)[C@@H](C)c1ccccc1)[C@@H](C)c1ccccc1)[C@@H](C)c1ccccc1)C(=O)O)C(=O)O)C(=O)O (Ac-[γGlu][γGlu][γGlu]HSSKLQ[Nlys][Nspe][Nspe][Nlys][Nspe][Nspe][Nlys][Nspe][Nspe][Nlys][Nspe][Nspe]-NH2)
LNCaP [1]
  CC50: 31 µM
PC-3
  CC50: 37 µM
LNCaP [2]
  RatioLC50: 1.2

## CC(C)C[C@H](NC(=O)[C@H](CCCCN)NC(=O)[C@H](CO)NC(=O)[C@H](CO)NC(=O)[C@H](Cc1cnc[nH]1)NC(=O)CC[C@H](NC(=O)CC[C@H](NC(=O)CC[C@H](N)C(=O)O)C(=O)O)C(=O)O)C(=O)N[C@@H](CCC(N)=O)C(=O)N(CCCCN)CC(=O)N(CC(=O)N(CC(=O)N(CCCCN)CC(=O)N(CC(=O)N(CC(=O)N(CCCCN)CC(=O)N(CC(=O)N(CC(=O)N(CCCCN)CC(=O)N(CC(=O)N(CC(N)=O)[C@@H](C)c1ccccc1)[C@@H](C)c1ccccc1)[C@@H](C)c1ccccc1)[C@@H](C)c1ccccc1)[C@@H](C)c1ccccc1)[C@@H](C)c1ccccc1)[C@@H](C)c1ccccc1)[C@@H](C)c1ccccc1 ({γGlu-γGlu-γGlu}-HSSKLQ[Nlys][Nspe][Nspe][Nlys][Nspe][Nspe][Nlys][Nspe][Nspe][Nlys][Nspe][Nspe]-NH2)
LNCaP [1]
  CC50: 17 µM
PC-3
  CC50: 34 µM
LNCaP [2]
  RatioLC50: 2

## C[C@@H](c1ccccc1)N(CC(N)=O)C(=O)CN(C(=O)CN(CCCCN)C(=O)CN(C(=O)CN(C(=O)CN(CCCCN)C(=O)CN(C(=O)CN(C(=O)CN(CCCCN)C(=O)CN(C(=O)CN(C(=O)CNCCCCN)[C@@H](C)c1ccccc1)[C@@H](C)c1ccccc1)[C@@H](C)c1ccccc1)[C@@H](C)c1ccccc1)[C@@H](C)c1ccccc1)[C@@H](C)c1ccccc1)[C@@H](C)c1ccccc1 (H-[Nlys][Nspe][Nspe][Nlys][Nspe][Nspe][Nlys][Nspe][Nspe][Nlys][Nspe][Nspe]-NH2)
LNCaP [1]
  CC50: 5 µM
PC-3
  CC50: 8.5 µM
LNCaP [2]
  RatioLC50: 1.7

## CC(C)C[C@H](NC(=O)[C@H](CCCCN)NC(=O)[C@H](CO)NC(=O)[C@H](CO)NC(=O)[C@@H](N)Cc1cnc[nH]1)C(=O)N[C@@H](CCC(N)=O)C(=O)N(CCCCN)CC(=O)N(CC(=O)N(CC(=O)N(CCCCN)CC(=O)N(CC(=O)N(CC(=O)N(CCCCN)CC(=O)N(CC(=O)N(CC(=O)N(CCCCN)CC(=O)N(CC(=O)N(CC(N)=O)[C@@H](C)c1ccccc1)[C@@H](C)c1ccccc1)[C@@H](C)c1ccccc1)[C@@H](C)c1ccccc1)[C@@H](C)c1ccccc1)[C@@H](C)c1ccccc1)[C@@H](C)c1ccccc1)[C@@H](C)c1ccccc1 (H-HSSKLQ[Nlys][Nspe][Nspe][Nlys][Nspe][Nspe][Nlys][Nspe][Nspe][Nlys][Nspe][Nspe]-NH2)
LNCaP [1]
  CC50: 9.2 µM
PC-3
  CC50: 19.6 µM
LNCaP [2]
  RatioLC50: 2.1

## CC(C)C[C@H](NC(=O)[C@H](CCCCN)NC(=O)[C@H](CO)NC(=O)[C@H](CO)NC(=O)[C@H](Cc1cnc[nH]1)NC(=O)CC[C@H](NC(=O)CC[C@H](N)C(=O)O)C(=O)O)C(=O)N[C@@H](CCC(N)=O)C(=O)N(CCCCN)CC(=O)N(CC(=O)N(CC(=O)N(CCCCN)CC(=O)N(CC(=O)N(CC(=O)N(CCCCN)CC(=O)N(CC(=O)N(CC(=O)N(CCCCN)CC(=O)N(CC(=O)N(CC(N)=O)[C@@H](C)c1ccccc1)[C@@H](C)c1ccccc1)[C@@H](C)c1ccccc1)[C@@H](C)c1ccccc1)[C@@H](C)c1ccccc1)[C@@H](C)c1ccccc1)[C@@H](C)c1ccccc1)[C@@H](C)c1ccccc1 ({γGlu-γGlu}-HSSKLQ[Nlys][Nspe][Nspe][Nlys][Nspe][Nspe][Nlys][Nspe][Nspe][Nlys][Nspe][Nspe]-NH2)
LNCaP [1]
  CC50: 10 µM
PC-3
  CC50: 18 µM
LNCaP [2]
  RatioLC50: 1.8

## C[C@@H](c1ccccc1)N(CC(N)=O)C(=O)CN(C(=O)CN(CCCCN)C(=O)CN(C(=O)CN(C(=O)CN(CCCCN)C(=O)CN(C(=O)CN(C(=O)CN(CCCCN)C(=O)CN(C(=O)CN(C(=O)CN(CCCCN)C(=O)CC[C@H](NC(=O)CC[C@H](NC(=O)CC[C@H](N)C(=O)O)C(=O)O)C(=O)O)[C@@H](C)c1ccccc1)[C@@H](C)c1ccccc1)[C@@H](C)c1ccccc1)[C@@H](C)c1ccccc1)[C@@H](C)c1ccccc1)[C@@H](C)c1ccccc1)[C@@H](C)c1ccccc1 ({γGlu-γGlu-γGlu}-[Nlys][Nspe][Nspe][Nlys][Nspe][Nspe][Nlys][Nspe][Nspe][Nlys][Nspe][Nspe]-NH2)
LNCaP [1]
  CC50: 15 µM
PC-3
  CC50: 17 µM
LNCaP [2]
  RatioLC50: 1.1

## C[C@@H](c1ccccc1)N(CC(N)=O)C(=O)CN(C(=O)CN(CCCCN)C(=O)CN(C(=O)CN(C(=O)CN(CCCCN)C(=O)CN(C(=O)CN(C(=O)CN(CCCCN)C(=O)CN(C(=O)CN(C(=O)CN(CCCCN)C(=O)CC[C@H](N)C(=O)O)[C@@H](C)c1ccccc1)[C@@H](C)c1ccccc1)[C@@H](C)c1ccccc1)[C@@H](C)c1ccccc1)[C@@H](C)c1ccccc1)[C@@H](C)c1ccccc1)[C@@H](C)c1ccccc1
LNCaP [1]
  CC50: 9.5 µM
PC-3
  CC50: 12 µM
LNCaP [2]
  RatioLC50: 1.3

## CC(C)C[C@H](NC(=O)[C@H](CCCCN)NC(=O)[C@H](CO)NC(=O)[C@H](CO)NC(=O)[C@H](Cc1cnc[nH]1)NC(=O)CNCCCCN)C(=O)N[C@@H](CCC(N)=O)C(=O)N(CC(=O)N(CC(=O)N(CCCCN)CC(=O)N(CC(=O)N(CC(=O)N(CCCCN)CC(=O)N(CC(=O)N(CC(=O)N(CCCCN)CC(=O)N(CC(=O)N(CC(N)=O)[C@@H](C)c1ccccc1)[C@@H](C)c1ccccc1)[C@@H](C)c1ccccc1)[C@@H](C)c1ccccc1)[C@@H](C)c1ccccc1)[C@@H](C)c1ccccc1)[C@@H](C)c1ccccc1)[C@@H](C)c1ccccc1 (H-[Nlys]HSSKLQ[Nspe][Nspe][Nlys][Nspe][Nspe][Nlys][Nspe][Nspe][Nlys][Nspe][Nspe]-NH2)
LNCaP [1]
  CC50: 5.7 µM
PC-3
  CC50: 16.9 µM
LNCaP [2]
  RatioLC50: 3

## CC(C)C[C@H](NC(=O)[C@H](CCCCN)NC(=O)[C@H](CO)NC(=O)[C@H](CO)NC(=O)[C@H](Cc1cnc[nH]1)NC(=O)CN(CCCCN)C(=O)CN(C(=O)CN(C(=O)CNCCCCN)[C@@H](C)c1ccccc1)[C@@H](C)c1ccccc1)C(=O)N[C@@H](CCC(N)=O)C(=O)N(CC(=O)N(CC(=O)N(CCCCN)CC(=O)N(CC(=O)N(CC(=O)N(CCCCN)CC(=O)N(CC(=O)N(CC(=O)N(CCCCN)CC(N)=O)[C@@H](C)c1ccccc1)[C@@H](C)c1ccccc1)[C@@H](C)c1ccccc1)[C@@H](C)c1ccccc1)[C@@H](C)c1ccccc1)[C@@H](C)c1ccccc1 (H-[Nlys][Nspe][Nspe][Nlys]HSSKLQ[Nspe][Nspe][Nlys][Nspe][Nspe][Nlys][Nspe][Nspe][Nlys]-NH2)
LNCaP [1]
  CC50: 5.9 µM
PC-3
  CC50: 19.1 µM
LNCaP [2]
  RatioLC50: 3.2
